From PMC12035797, “Peptidomimetics Activating the Proteasome: A New Perspective for Parkinson’s Treatment” (Journal of Medicinal Chemistry, 2025)

Test system: T1, proteasome in HEK293T cell lysate
T1 construct: endogenous in cells; host or cells: HEK293T cell lysate
Experiment: Proteasome activity in the HEK293T cell lysate, Suc-LLVY-AMC
Type: biochemical, human
Experimental: To assess whether activators are able to stimulate the proteasome in the cellular environment, we conducted experiments using the HEK293T cell lysate. […] The experiment was carried out as it was described.[25] Briefly, HEK293T cells were lysed, and the lysate was treated with the modulators at a concentration of 1, 2.5, 5, 10, and 25 μM, only in the case of modulators with the TAT or 6R sequence attached were the concentrations 0.5, 1, 2.5, 5, and 10 μM. The proteasome activity was probed using Suc-LLVY-AMC substrate. One μM bortezomib was used as a negative control. All experiments were performed in at least three independent replicates. One-way ANOVA with Tukey’s post-hoc test was used to determine statistical significance.

With `C[C@@H](O)[C@H](NC(=O)[C@H](Cc1ccccc1)NC(=O)[C@H](Cc1ccc(O)cc1)NC(=O)CN(CCCCN)C(=O)[C@H](CCCNC(=N)N)NC(=O)[C@H](CCCNC(=N)N)NC(=O)[C@H](CCCNC(=N)N)NC(=O)[C@H](CCC(N)=O)NC(=O)[C@H](CCCNC(=N)N)NC(=O)[C@H](CCCNC(=N)N)NC(=O)[C@H](CCCCN)NC(=O)[C@H](CCCCN)NC(=O)[C@@H](N)CCCNC(=N)N)C(=O)NCC(=O)N[C@@H](CO)C(=O)N[C@@H](CCCCN)C(=O)N[C@@H](CC(=O)O)C(=O)N[C@@H](Cc1c[nH]c2ccccc12)C(=O)N[C@@H](CCCNC(=N)N)C(=O)N[C@@H](CO)C(=O)N[C@@H](Cc1ccc(O)cc1)C(=O)N[C@@H](Cc1ccc(O)cc1)C(=O)N[C@@H](CO)C(=O)O` [1f] the “activation of the proteasome in HEK293T cell lysate” value (5 μM) was “approximately 4 fold” and the “efficacy in HEK293T cell lysate” value (compared with 1a) was “higher efficacy than their parent compound 1a”.
